In US12378224B2 (Dong-A Socio Holdings Co., Ltd., priority 2016, dated 2025):

Target: human MER (528-end) (Homo sapiens (Human), UniProt Q12866)
Assay: HTRF Kinase Activity Biochemical Assay (KinEASE-TK)
Settings: 10 uM ATP
Outline: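 Recombinant human MER (528-end) phosphorylated biotin-TK peptide substrate, 1 h at room temperature. Reaction stopped with detection buffer containing 0.375 nM Eu3+-cryptate anti-TK antibody and 0.062 uM streptavidin-XL665, 1 h further. Activity taken as HTRF ratio 665/620 nm ×10,000, 340 nm excitation.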

human MER (528-end), sequence (Q12866 528-999 limits assumed): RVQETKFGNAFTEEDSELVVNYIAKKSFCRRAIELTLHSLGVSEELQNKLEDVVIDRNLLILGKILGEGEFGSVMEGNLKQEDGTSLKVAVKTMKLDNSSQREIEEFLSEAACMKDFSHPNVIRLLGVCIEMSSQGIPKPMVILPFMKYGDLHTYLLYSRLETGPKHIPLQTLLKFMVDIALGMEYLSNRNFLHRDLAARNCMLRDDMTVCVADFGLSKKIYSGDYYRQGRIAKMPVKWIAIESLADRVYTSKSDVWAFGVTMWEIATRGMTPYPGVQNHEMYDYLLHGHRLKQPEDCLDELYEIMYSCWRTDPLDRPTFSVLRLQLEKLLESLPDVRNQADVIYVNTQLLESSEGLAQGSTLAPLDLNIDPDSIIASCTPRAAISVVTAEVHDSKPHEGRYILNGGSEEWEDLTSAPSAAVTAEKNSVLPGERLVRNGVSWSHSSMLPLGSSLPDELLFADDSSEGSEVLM

## Cn1cc(-c2cnc(N)c(C(=O)N[C@@H]3CCN(C(=O)Oc4ccccc4C#N)C3)c2)cn1 [Example 62, 2-cyanophenyl (R)-3-(2-amino-5-(1-methyl-1H-pyrazol-4-yl)nicotinamido)pyrrolidine-1-carboxylate]
  IC50: > 1 µM

## Cn1cc(-c2cnc(N)c(C(=O)N[C@@H]3CCN(C(=O)Oc4cccc(-c5cccc(CN6CC[C@H](N)C6)c5)c4)C3)c2)cn1 [Example 337, 3′-(((S)-3-aminopyrrolidin-1-yl)methyl)-[1,1′-biphenyl]-3-yl (R)-3-(2-amino-5-(1-methyl-1H-pyrazol-4-yl)nicotinamido)pyrrolidine-1-carboxylate]
  IC50: > 1 µM

## Cn1cc(-c2cnc(N)c(C(=O)N[C@@H]3CCN(C(=O)Oc4cccc(-c5cnn(CCN6CCOCC6)c5)c4)C3)c2)cn1 [Example 287, 3-(1-(2-morpholinoethyl)-1H-pyrazol-4-yl)phenyl (R)-3-(2-amino-5-(1-methyl-1H-pyrazol-4-yl)nicotinamido)pyrrolidine-1-carboxylate]
  IC50: > 1 µM

## COc1cc(CN2CC[C@@H](NC(=O)c3cc(-c4cnn(C)c4)cnc3N)C2)cc(OC)c1 [Example 216, (R)-2-amino-N-(1-(3,5-dimethoxybenzyl)pyrrolidin-3-yl)-5-(1-methyl-1H-pyrazol-4-yl)nicotinamide]
  IC50: > 1 µM

## CN1CCN(C(=O)Cc2ccc(-c3cccc(C(=O)N4CC[C@@H](NC(=O)c5cc(-c6cnn(C)c6)cnc5N)C4)c3)cc2)CC1 [Example 454, (R)-2-amino-5-(1-methyl-1H-pyrazol-4-yl)-N-(1-(4′-(2-(4-methylpiperazin-1-yl)-2-oxoethyl)-[1,1′-biphenyl]-3-carbonyl)pyrrolidin-3-yl)nicotinamide]
  IC50: > 1 µM

## Cn1cc(-c2cnc(N)c(C(=O)N[C@@H]3CCN(CCc4ccccc4)C3)c2)cn1 [Example 230, (R)-2-amino-5-(1-methyl-1H-pyrazol-4-yl)-N-(1-phenethylpyrrolidin-3-yl)nicotinamide]
  IC50: > 1 µM

## CC(C)NC(=O)N1CC[C@@H](NC(=O)c2cc(-c3cnn(C)c3)cnc2N)C1 [Example 8, (R)-2-amino-N-(1-(isopropylcarbamoyl)pyrrolidin-3-yl)-5-(1-methyl-1H-pyrazol-4-yl)nicotinamide]
  IC50: > 1 µM

## Cn1cc(-c2cnc(N)c(C(=O)N[C@@H]3CCN(C(=O)OCc4ccccc4)C3)c2)cn1 [Example 80, benzyl (R)-3-(2-amino-5-(1-methyl-1H-pyrazol-4-yl)nicotinamido)pyrrolidine-1-carboxylate]
  IC50: > 1 µM

## Cn1cc(-c2cnc(N)c(C(=O)N[C@@H]3CCN(C(=O)Nc4cc(Cl)cc(Cl)c4)C3)c2)cn1 [Example 34, (R)-2-amino-N-(1-((3,5-dichlorophenyl)carbamoyl)pyrrolidin-3-yl)-5-(1-methyl-1H-pyrazol-4-yl)nicotinamide]
  IC50: 0.1 to 1 µM

## CN1CCN(Cc2ccc(Oc3ccc(C(=O)N4CC[C@@H](NC(=O)c5cc(-c6cnn(C)c6)cnc5N)C4)cc3)cc2)CC1 [Example 448, (R)-2-amino-5-(1-methyl-1H-pyrazol-4-yl)-N-(1-(4-(4-((4-methylpiperazin-1-yl)methyl)phenoxy)benzoyl)pyrrolidin-3-yl)nicotinamide]
  IC50: > 1 µM

## CCc1ccc(CN2CC[C@@H](NC(=O)c3cc(-c4cnn(C)c4)cnc3N)C2)cc1 [Example 211, (R)-2-amino-N-(1-(4-ethylbenzyl)pyrrolidin-3-yl)-5-(1-methyl-1H-pyrazol-4-yl)nicotinamide]
  IC50: > 1 µM

## Cc1onc(N)c1-c1ccc(C(=O)N2CC[C@@H](NC(=O)c3cc(-c4cnn(C)c4)cnc3N)C2)cc1 [Example 540, (R)-2-amino-N-(1-(4-(3-amino-5-methylisoxazol-4-yl)benzoyl)pyrrolidin-3-yl)-5-(1-methyl-1H-pyrazol-4-yl)nicotinamide]
  IC50: > 1 µM

## Nc1ncc(-c2ccc(C(=O)N3CCN(CCO)CC3)cc2)cc1C(=O)N[C@@H]1CCN(C(=O)c2ccc(-c3ccccc3Cl)cc2)C1 [Example 589, (R)-2-amino-N-(1-(2′-chloro-[1,1′-biphenyl]-4-carbonyl)pyrrolidin-3-yl)-5-(4-(4-(2-hydroxyethyl)piperazine-1-carbonyl)phenyl)nicotinamide]
  IC50: 0.01 to 0.1 µM

## CN1CCN(c2ccc(-c3ccc(C(=O)N4CC[C@@H](NC(=O)c5cc(-c6cnn(C)c6)cnc5N)C4)cc3)cc2)CC1 [Example 383, (R)-2-amino-5-(1-methyl-1H-pyrazol-4-yl)-N-(1-(4′-(4-methylpiperazin-1-yl)-[1,1′-biphenyl]-4-carbonyl)pyrrolidin-3-yl)nicotinamide]
  IC50: > 1 µM

## Cn1cc(-c2cnc(N)c(C(=O)N[C@@H]3CCN(C(=O)c4ccc(-c5ccccc5Cl)cn4)C3)c2)cn1 [Example 395, (R)-2-amino-N-(1-(5-(2-chlorophenyl)picolinoyl)pyrrolidin-3-yl)-5-(1-methyl-1H-pyrazol-4-yl)nicotinamide]
  IC50: 0.1 to 1 µM

## Cn1cc(-c2cnc(N)c(C(=O)N[C@@H]3CCN(C(=O)c4ccc(-c5cc(F)ccc5Cl)cc4)C3)c2)cn1 [Example 667, (R)-2-amino-N-(1-(2′-chloro-5′-fluoro-[1,1′-biphenyl]-4-carbonyl)pyrrolidin-3-yl)-5-(1-methyl-1H-pyrazol-4-yl)nicotinamide]
  IC50: 0.01 to 0.1 µM

## Nc1ncc(-c2ccc(CO)cc2)cc1C(=O)N[C@@H]1CCN(C(=O)Nc2cccc(-c3ccccc3)c2)C1 [Example 256, (R)—N-(1-([1,1′-biphenyl]-3-ylcarbamoyl)pyrrolidin-3-yl)-2-amino-5-(4-(hydroxymethyl)phenyl)nicotinamide]
  IC50: 0.1 to 1 µM

## Cn1cc(-c2cnc(N)c(C(=O)N[C@@H]3CCN(C(=O)c4cccc(-c5ccccc5)c4)C3)c2)cn1 [Example 450, (R)—N-(1-([1,1′-biphenyl]-3-carbonyl)pyrrolidin-3-yl)-2-amino-5-(1-methyl-1H-pyrazol-4-yl)nicotinamide]
  IC50: > 1 µM

## Cn1cc(-c2cnc(N)c(C(=O)N[C@@H]3CCN(C(=O)c4ccccc4)C3)c2)cn1 [Example 438, (R)-2-amino-N-(1-benzoylpyrrolidin-3-yl)-5-(1-methyl-1H-pyrazol-4-yl)nicotinamide]
  IC50: > 1 µM

## Cn1cc(-c2cnc(N)c(C(=O)N[C@@H]3CCN(C(=O)Oc4cccc(-c5cnn(CCO)c5)c4)C3)c2)cn1 [Example 284, 3-(1-(2-hydroxyethyl)-1H-pyrazol-4-yl)phenyl (R)-3-(2-amino-5-(1-methyl-1H-pyrazol-4-yl)nicotinamido)pyrrolidine-1-carboxylate]
  IC50: > 1 µM

## Nc1ncc(-c2cnn(C3CCNCC3)c2)cc1C(=O)N[C@@H]1CCN(C(CO)c2ccccc2)C1 (stereo partly drawn) [Example 629, 2-amino-N-((3R)-1-(2-hydroxy-1-phenylethyl)pyrrolidin-3-yl)-5-(1-(piperidin-4-yl)-1H-pyrazol-4-yl)nicotinamide]
  IC50: > 1 µM

## Cn1cc(-c2cnc(N)c(C(=O)N[C@@H]3CCN(C(=O)Oc4cccc(-c5ccc(CN6CCC[C@@H]6CO)cc5)c4)C3)c2)cn1 [Example 324, 4′-(((R)-2-(hydroxymethyl)pyrrolidin-1-yl)methyl)-[1,1′-biphenyl]-3-yl (R)-3-(2-amino-5-(1-methyl-1H-pyrazol-4-yl)nicotinamido)pyrrolidine-1-carboxylate]
  IC50: 0.1 to 1 µM

## COC(=O)c1cccc(OC(=O)N2CC[C@@H](NC(=O)c3cc(-c4cnn(C)c4)cnc3N)C2)c1 [Example 64, 3-(methoxycarbonyl)phenyl (R)-3-(2-amino-5-(1-methyl-1H-pyrazol-4-yl)nicotinamido)pyrrolidine-1-carboxylate]
  IC50: > 1 µM
